From patent US11118162B2, “Cytopheresis cartridges and use thereof” (SeaStar Medical, Inc., priority 2010, dated 2021)

Key:
[1] = system: leukocytes in porcine blood; assay: Microscopic flow chamber: leukocyte interaction with polysulfone SCD membrane; format: cell-based, pig
Text: A custom microscopic flow chamber system was set up to enable microscopic analysis of leukocyte interaction with the SCD membrane. The flow chamber consisted of a polycarbonate housing with an inlet and outlet for perfusion. A polysulfone membrane was affixed to the polycarbonate block with a gasket which directed shear flow. The thickness of the gasket (100 μm) along with the length (2 cm) and the width of the channel (1.5 mm) determined the volume of the flow chamber. Microscopic imaging was accomplished through an optical window made up of a cover glass affixed to the bottom of the polycarbonate block. Either isolated blood or purified leukocytes were used for this study.
Isolated blood was prone to activation from excessive handling. […] Blood passed through the flow chamber at a rate of 20 μL/min with calculated shear forces between 1-10 dynes/cm^2. […]
Microscopic analysis of cell capture events was accomplished using either a Zeiss Axiovert 200M or Axio-Observer epifluorescence microscope equipped with a microscope stage-top incubator to control environmental temperature and CO2 content. Fluorescence images were acquired with either a Zeiss MRm3 or an Icc1 camera at a frequency of 1 frame/second for 5 minutes, for analysis of leukocyte/membrane interaction, and at 1 frame/minute for 1 hour sequences, for analysis of long term leukocyte attachment. […]

[2] = system: leukocytes in human whole blood; assay: In vitro leukocyte activation in heparinized human whole blood; format: cell-based; conditions: for Lactoferrin: n = 4; for Elastase: n = 5
Protocol: Heparinized human whole blood was added to tubes with or without lipopolysaccharide (LPS) (10 μg/mL) or formyl-Methionyl-Leucyl-Phenylalanine (fMLF, 50 nM). […] The release of IL-6, IL-8, or IL-10 was measured using commercially available ELISA kits from R&D Systems. The release of elastase was measured using a commercially available ELISA kit from Bender MedSystems. The release of lactoferrin was measured using a commercially available ELISA kit from EMD Chemicals. […] Samples were incubated for various times at 37° C. and 5% CO2. CD11b activation was measured using an FITC-conjugated mouse anti-human antibody (AbD Serotech) and evaluated on an Accuri C6 flow cytometer.

Compound | Persistent leukocyte adhesion events ([1]; 1 hour sequences, LPS and citrate versus LPS only) | Rolling events ([1]; LPS and citrate treated blood) | Lactoferrin ([2]; Baseline) [mg/mL] | Elastase ([2]; Baseline) [mg/mL] | Lactoferrin ([2]; Stimulated (LPS, fMLF)) [mg/mL] | Elastase ([2]; Stimulated (LPS, fMLF)) [mg/mL]
O=C(O)CC(O)(CC(=O)O)C(=O)O [Citrate] | far fewer | observed increase |  |  |  | 
heparin |  |  | 8.47 | 2.73 | 12.42 | 4.52
